Tests used:
[1] = test system: Enterobacteriaceae; assay: Antimicrobial activity against integron carrying Enterobacteriaceae assessed as percent resistant isolates; format: functional
[2] = test system: Enterobacteriaceae; assay: Antimicrobial activity against non-integron carrying Enterobacteriaceae assessed as percent resistant isolates; format: functional

In the case of `CO[C@@]1(NC(=O)Cc2cccs2)C(=O)N2C(C(=O)O)=C(COC(N)=O)CS[C@@H]21` (single isomer, unassigned) [CEFOXITIN], the Activity [1] is reported as 40% and the Activity [2] is reported as 16.6%.
Molecule `NCC[C@H](O)C(=O)N[C@@H]1C[C@H](N)[C@@H](O[C@H]2O[C@H](CN)[C@@H](O)[C@H](O)[C@H]2O)[C@H](O)[C@H]1O[C@H]1O[C@H](CO)[C@@H](O)[C@H](N)[C@H]1O` [AMIKACIN] has an Activity [1] of 29.7% and an Activity [2] of 4.2%.
Work on `CC1(C)S[C@@H]2[C@H](NC(=O)[C@H](N)c3ccccc3)C(=O)N2[C@H]1C(=O)O` [AMPICILLIN] yielded an Activity [1] of 96.3% and an Activity [2] of 60%.
In the case of `C[C@H]1[C@H](NC(=O)/C(=N\OC(C)(C)C(=O)O)c2csc(N)n2)C(=O)N1S(=O)(=O)O` [AZTREONAM], the Activity [1] is reported as 26.9% and the Activity [2] is reported as 9.4%.
`CO/N=C(\C(=O)N[C@@H]1C(=O)N2C(C(=O)[O-])=C(C[N+]3(C)CCCC3)CS[C@H]12)c1csc(N)n1` [CEFEPIME] showed an Activity [1] of 29.5% and an Activity [2] of 6.2%.
Molecule `CO/N=C(\C(=O)N[C@@H]1C(=O)N2C(C(=O)O)=C(COC(C)=O)CS[C@H]12)c1csc(N)n1` [CEFOTAXIME] has an Activity [1] of 41.3% and an Activity [2] of 6.9%.
`CC(C)(O/N=C(\C(=O)N[C@@H]1C(=O)N2C(C(=O)[O-])=C(C[n+]3ccccc3)CS[C@H]12)c1csc(N)n1)C(=O)O` [CEFTAZIDIME] showed an Activity [1] of 36.3% and an Activity [2] of 4.9%.
In the case of `CO/N=C(\C(=O)N[C@@H]1C(=O)N2C(C(=O)O)=C(COC(N)=O)CS[C@H]12)c1ccco1` [CEFUROXIME], the Activity [1] is reported as 46.9% and the Activity [2] is reported as 21.9%.
`O=C(O)c1cn(C2CC2)c2cc(N3CCNCC3)c(F)cc2c1=O` [CIPROFLOXACIN] showed an Activity [1] of 49.4% and an Activity [2] of 6.9%.
`COc1cc(Cc2cnc(N)nc2N)cc(OC)c1OC.Cc1cc(NS(=O)(=O)c2ccc(N)cc2)no1` [CO-TRIMOXAZOLE] gave an Activity [1] of 87.7% and an Activity [2] of 14.5%.
`C[C@@H](O)[C@H]1C(=O)N2C(C(=O)O)=C(SCCNC=N)C[C@H]12` [IMIPENEM ANHYDROUS] gave an Activity [1] of 7.6% and an Activity [2] of 1.2%.
`C[C@@H](O)[C@H]1C(=O)N2C(C(=O)O)=C(S[C@@H]3CN[C@H](C(=O)N(C)C)C3)[C@H](C)[C@H]12` [MEROPENEM] showed an Activity [1] of 6% and an Activity [2] of 2%.
For `CCN1CCN(C(=O)N[C@@H](C(=O)N[C@@H]2C(=O)N3[C@@H]2SC(C)(C)[C@@H]3C(=O)O)c2ccccc2)C(=O)C1=O` [PIPERACILLIN], the Activity [1] was 90.2% and the Activity [2] was 32.1%.
For `NC[C@H]1O[C@H](O[C@H]2[C@H](O)[C@@H](O[C@H]3O[C@H](CO)[C@@H](O)[C@H](N)[C@H]3O)[C@H](N)C[C@@H]2N)[C@H](N)C[C@@H]1O` [TOBRAMYCIN], the Activity [1] was 41.8% and the Activity [2] was 8.5%.
For COLISTIMETHATE SODIUM, the Activity [1] was 12.5% and the Activity [2] was 12.5%.
